# Assay results from patent publication US9075070B2, “HTS fluorescence polarization assay for inhibitors of Keap1-Nrf2 interaction” (RUTGERS, THE STATE UNIVERSITY OF NEW JERSEY, priority 2011, dated 2015).
# Biological target: human Keap1 Kelch domain (Homo sapiens, UniProt Q14145)
# Test: FP binding assay: titration of fluorescently labeled Nrf2 peptide probes with Keap1 Kelch domain
# Conditions: difference in the free and the bound anisotropy of the FITC-labeled peptide
# Chain of human Keap1 Kelch domain (Q14145 with tags, fused parts or gaps): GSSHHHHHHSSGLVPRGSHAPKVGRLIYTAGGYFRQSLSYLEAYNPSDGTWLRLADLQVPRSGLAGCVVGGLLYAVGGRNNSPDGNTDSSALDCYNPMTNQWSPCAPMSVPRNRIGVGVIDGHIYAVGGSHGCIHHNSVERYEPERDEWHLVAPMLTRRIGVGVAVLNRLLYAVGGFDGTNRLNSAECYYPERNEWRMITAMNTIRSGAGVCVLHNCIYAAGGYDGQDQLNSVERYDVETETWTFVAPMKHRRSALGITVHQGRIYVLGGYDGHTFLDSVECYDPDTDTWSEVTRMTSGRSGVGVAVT
smiles,measurement,value
CC(C)C[C@H](NC(=O)[C@H](Cc1ccccc1)NC(=O)[C@H](CCC(=O)O)NC(=O)CNC(=O)[C@@H](NC(=O)[C@H](CCC(=O)O)NC(=O)[C@H](CCC(=O)O)NC(=O)[C@H](CC(=O)O)NC(=O)[C@H](CC(C)C)NC(=O)[C@H](CCC(N)=O)NC(=O)[C@H](CC(C)C)NC(=O)[C@H](CCC(N)=O)NC(=O)[C@H](C)NC(=O)[C@H](Cc1ccccc1)NC(=S)Nc1ccc2c(c1)C(=O)OC21c2ccc(O)cc2Oc2cc(O)ccc21)[C@@H](C)O)C(=O)O [FITC-14mer Nrf2],Dynamic Range (ΔmA),64.2 mA
